Where two headings read alike, the source gives them in different places.
Columns and labels:
[1] = target: T1, NRAS Q61K (Homo sapiens, UniProt P01111+P62937, Q61K); assay: Ras-Raf disruption/FRET/MOA assay, NRAS Q61K; type: biochemical
T1 construct: His6
Excerpt: (§1) Disruption of B-Raf Ras-Binding Domain (BRAF^RBD) Interaction with K-Ras by Compounds of the Invention (Also Called a FRET Assay or an MOA Assay)
(§2) Note—The following protocol describes a procedure for monitoring disruption of K-Ras G12C (GMP-PNP) binding to BRAF^RBD by a compound of the invention. This protocol may also be executed substituting other Ras proteins or nucleotides, such as K-Ras G12D and K-Ras G13D.
(§3) The purpose of this biochemical assay was to measure the ability of test compounds to facilitate ternary complex formation between a nucleotide-loaded K-Ras isoform and Cyclophilin A; the resulting ternary complex disrupts binding to a BRAF^RBD construct, inhibiting K-Ras signaling through a RAF effector.
(§4) In assay buffer containing 25 mM HEPES pH 7.3, 0.002% Tween20, 0.1% BSA, 100 mM NaCl and 5 mM MgCl2, tagless Cyclophilin A, His6-K-Ras-GMPPNP, and GST-BRAF^RBD were combined in a 384-well assay plate at final concentrations of 25 μM, 12.5 nM, and 50 nM, respectively. Compound was present in plate wells as a 10-point 3-fold dilution series starting at a final concentration of 30 μM. After incubation at 25° C. for 3 hours, a mixture of anti-His Eu-W1024 and anti-GST allophycocyanin was then added to assay sample wells at final concentrations of 10 nM and 50 nM, respectively, and the reaction incubated for an additional 1.5 hours. […] Compounds that facilitate disruption of a K-Ras:RAF complex were identified as those eliciting a decrease in the TR-FRET ratio relative to DMSO control wells.

[2] = target: T2, NRAS Q61R (Homo sapiens, UniProt P01111+P62937, Q61R); assay: Ras-Raf disruption/FRET/MOA assay, NRAS Q61R; type: biochemical
T2 construct: His6
T2 sequence (P01111 whole entry Q61R): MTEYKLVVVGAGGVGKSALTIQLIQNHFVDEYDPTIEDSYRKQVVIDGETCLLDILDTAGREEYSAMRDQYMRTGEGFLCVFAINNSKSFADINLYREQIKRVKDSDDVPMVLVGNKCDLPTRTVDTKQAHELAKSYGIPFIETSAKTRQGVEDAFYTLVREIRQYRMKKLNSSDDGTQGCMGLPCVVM
T2 sequence (P62937 whole entry): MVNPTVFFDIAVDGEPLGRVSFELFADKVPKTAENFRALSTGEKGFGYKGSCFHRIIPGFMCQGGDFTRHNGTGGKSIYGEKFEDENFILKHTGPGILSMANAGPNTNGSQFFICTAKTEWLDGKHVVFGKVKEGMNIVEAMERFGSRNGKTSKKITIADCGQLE
Excerpt: as §1, §2, §3, §4

[3] = tested on: AsPC-1 (K-Ras G12D); assay: CellTiter-Glo cell viability assay, AsPC-1; type: cell-based; conditions: Homo sapiens, ASPC1, 120 h
Method in brief: (§5)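 Compounds dispensed directly onto seeded AsPC-1 (K-Ras G12D) or NCI-H358 (K-Ras G12C) cells; CellTiter-Glo luminescence read on day 5 after ~30 min equilibration to room temperature. Signal normalized to DMSO average (%) and fit by four-parameter logistic.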

[4] = target: T3, NRAS G12C (Homo sapiens, UniProt P01111+P62937, G12C); assay: Ras-Raf disruption/FRET/MOA assay, NRAS G12C; type: biochemical
T3 construct: His6
T3 sequence (P01111 whole entry G12C): as the sequence (P01111 whole entry Q61R) above, with G12C, R61Q counted along it
T3 sequence (P62937 whole entry): as the sequence (P62937 whole entry) above
Method in brief: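 Disruption of Ras:RAF binding was read as a drop in TR-FRET ratio versus DMSO controls. The buffer was 25 mM HEPES pH 7.3, 0.002% Tween20, 0.1% BSA, 100 mM NaCl and 5 mM MgCl2. Compounds were tested as a 10-point 3-fold dilution series from 30 μM. Detection used 10 nM anti-His Eu-W1024 and 50 nM anti-GST allophycocyanin.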

[5] = tested on: AsPC-1 (K-Ras G12D); assay: Potency assay: pERK in AsPC-1 cells; type: cell-based; conditions: Homo sapiens
[6] = target: T4, NRAS WT (Homo sapiens, UniProt P01111+P62937); assay: Ras-Raf disruption/FRET/MOA assay, NRAS WT; type: biochemical
T4 construct: His6
T4 sequence (P01111 whole entry): as the sequence (P01111 whole entry Q61R) above, with R61Q counted along it
T4 sequence (P62937 whole entry): as the sequence (P62937 whole entry) above
Excerpt: as §1, §2, §3, §4

[7] = tested on: NCI-H358 (K-Ras G12C); assay: CellTiter-Glo cell viability assay, H358; type: cell-based; conditions: Homo sapiens, NCI-H358, 120 h
Method in brief: as §5

[8] = target: KRAS G12D (Homo sapiens, UniProt P01116+P62937, G12D); assay: Ras-Raf disruption/FRET/MOA assay, KRAS G12D; type: biochemical; conditions: disruption of BRAF RBD binding, with Cyclophilin A; read-out: KRAS G12D FRET IC50
Sequence of KRAS G12D (P01116 1-169 isoform P01116-2 G12D limits assumed): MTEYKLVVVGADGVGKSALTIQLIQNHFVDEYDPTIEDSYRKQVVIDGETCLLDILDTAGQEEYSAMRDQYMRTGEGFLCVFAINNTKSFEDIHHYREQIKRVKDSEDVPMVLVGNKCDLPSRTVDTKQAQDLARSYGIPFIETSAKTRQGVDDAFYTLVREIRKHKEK
Sequence of KRAS G12D (P62937 whole entry): as the sequence (P62937 whole entry) above
Method in brief: (§6)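 Compounds promote a Cyclophilin A (25 μM) ternary complex with His6-KRAS-GMPPNP, which blocks binding of GST-BRAF^RBD (50 nM). Titration runs to a 30 μM top concentration, and loss of RAF binding is detected by TR-FRET.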

[9] = target: KRAS G12C (Homo sapiens, UniProt P01116+P62937, G12C); assay: Ras-Raf disruption/FRET/MOA assay, KRAS G12C; type: biochemical; conditions: disruption of BRAF RBD binding, with Cyclophilin A; read-out: KRAS G12C FRET IC50
Sequence of KRAS G12C (P01116 1-169 isoform P01116-2 G12C limits assumed): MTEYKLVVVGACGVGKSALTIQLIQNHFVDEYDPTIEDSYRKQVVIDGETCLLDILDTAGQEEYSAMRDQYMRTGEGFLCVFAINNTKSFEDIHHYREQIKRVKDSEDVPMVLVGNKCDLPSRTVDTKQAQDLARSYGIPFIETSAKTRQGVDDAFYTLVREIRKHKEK
Sequence of KRAS G12C (P62937 whole entry): as the sequence (P62937 whole entry) above
Method in brief: as §6

[10] = target: KRAS G12V (Homo sapiens, UniProt P01116+P62937, G12V); assay: Ras-Raf disruption/FRET/MOA assay, KRAS G12V; type: biochemical; conditions: disruption of BRAF RBD binding, with Cyclophilin A; read-out: KRAS G12V FRET IC50
Sequence of KRAS G12V (P01116 1-169 isoform P01116-2 G12V limits assumed): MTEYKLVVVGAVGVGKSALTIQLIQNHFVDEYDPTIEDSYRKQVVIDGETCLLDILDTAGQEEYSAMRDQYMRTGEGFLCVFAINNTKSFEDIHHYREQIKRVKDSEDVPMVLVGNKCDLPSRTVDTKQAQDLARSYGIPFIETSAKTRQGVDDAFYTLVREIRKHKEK
Sequence of KRAS G12V (P62937 whole entry): as the sequence (P62937 whole entry) above
Method in brief: as §6

[11] = target: KRAS WT (Homo sapiens, UniProt P01116+P62937); assay: Ras-Raf disruption/FRET/MOA assay, KRAS WT; type: biochemical; conditions: disruption of BRAF RBD binding, with Cyclophilin A; read-out: KRAS WT FRET IC50
Sequence of KRAS WT (P01116 1-169 isoform P01116-2 limits assumed): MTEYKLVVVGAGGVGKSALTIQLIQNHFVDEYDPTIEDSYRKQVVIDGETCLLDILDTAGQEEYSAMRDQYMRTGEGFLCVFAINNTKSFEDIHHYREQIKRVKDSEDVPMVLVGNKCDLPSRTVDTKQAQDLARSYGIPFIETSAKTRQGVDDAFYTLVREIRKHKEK
Sequence of KRAS WT (P62937 whole entry): as the sequence (P62937 whole entry) above
Method in brief: as §6

[12] = target: KRAS G13D (Homo sapiens, UniProt P01116+P62937, G13D); assay: Ras-Raf disruption/FRET/MOA assay, KRAS G13D; type: biochemical; conditions: disruption of BRAF RBD binding, with Cyclophilin A; read-out: KRAS G13D FRET IC50
Sequence of KRAS G13D (P01116 1-169 isoform P01116-2 G13D limits assumed): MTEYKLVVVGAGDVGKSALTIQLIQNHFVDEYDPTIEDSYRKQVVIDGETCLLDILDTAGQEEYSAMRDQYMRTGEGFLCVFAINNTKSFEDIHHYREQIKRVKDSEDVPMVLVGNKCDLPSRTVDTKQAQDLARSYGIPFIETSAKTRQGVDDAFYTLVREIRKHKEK
Sequence of KRAS G13D (P62937 whole entry): as the sequence (P62937 whole entry) above
Method in brief: as §6

[13] = target: KRAS Q61H (Homo sapiens, UniProt P01116+P62937, Q61H); assay: Ras-Raf disruption/FRET/MOA assay, KRAS Q61H; type: biochemical; conditions: KRAS Q61H; read-out: KRAS Q61H FRET data IC50
Sequence of KRAS Q61H (P01116 1-169 isoform P01116-2 Q61H limits assumed): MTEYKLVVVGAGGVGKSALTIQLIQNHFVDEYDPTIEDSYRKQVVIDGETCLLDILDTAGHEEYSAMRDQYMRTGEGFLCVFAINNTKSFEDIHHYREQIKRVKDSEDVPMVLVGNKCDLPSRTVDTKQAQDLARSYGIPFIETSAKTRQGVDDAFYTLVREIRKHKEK
Sequence of KRAS Q61H (P62937 whole entry): as the sequence (P62937 whole entry) above
Excerpt: as §1, §2, §3, §4

[14] = target: KRAS G13C (Homo sapiens, UniProt P01116+P62937, G13C); assay: Ras-Raf disruption/FRET/MOA assay, KRAS G13C; type: biochemical; conditions: disruption of BRAF RBD binding, with Cyclophilin A; read-out: KRAS G13C FRET IC50
Sequence of KRAS G13C (P01116 1-169 isoform P01116-2 G13C limits assumed): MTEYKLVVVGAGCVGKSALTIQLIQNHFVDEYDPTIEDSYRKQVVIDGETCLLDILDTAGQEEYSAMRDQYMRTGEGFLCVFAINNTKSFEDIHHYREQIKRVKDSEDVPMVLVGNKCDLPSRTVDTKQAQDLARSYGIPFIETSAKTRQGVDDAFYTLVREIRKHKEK
Sequence of KRAS G13C (P62937 whole entry): as the sequence (P62937 whole entry) above
Method in brief: as §6

[15] = target: KRAS G12S (Homo sapiens, UniProt P01116+P62937, G12S); assay: Ras-Raf disruption/FRET/MOA assay, KRAS G12S; type: biochemical; conditions: disruption of BRAF RBD binding, with Cyclophilin A; read-out: KRAS G12S FRET IC50
Sequence of KRAS G12S (P01116 1-169 isoform P01116-2 G12S limits assumed): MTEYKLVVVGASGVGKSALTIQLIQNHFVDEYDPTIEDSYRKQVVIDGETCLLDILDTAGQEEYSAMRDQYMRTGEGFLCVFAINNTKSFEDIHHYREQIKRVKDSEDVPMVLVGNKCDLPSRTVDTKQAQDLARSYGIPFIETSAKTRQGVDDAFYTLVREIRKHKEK
Sequence of KRAS G12S (P62937 whole entry): as the sequence (P62937 whole entry) above
Method in brief: as §6

[16] = AsPC-1, K-Ras G12D, 5-day treatment, read-out: AsPC-1 Cell Viability IC50
[17] = ASPC1, AsPC-1 cells, K-Ras G12D, read-out: pERK EC50 (AsPC-1 KRAS G12D)
[18] = ASPC1, read-out: pERK EC50 (AsPC-1 KRAS G12D)
[19] = NRAS Q61K, read-out: NRAS Q61K FRET data IC50
[20] = NRAS Q61R, read-out: NRAS Q61R FRET data IC50
[21] = NRAS G12C, read-out: NRAS G12C FRET data IC50
[22] = NRAS WT, read-out: NRAS WT FRET data IC50

T1 sequence (P01111 whole entry Q61K): as the sequence (P01111 whole entry Q61R) above, with R61K counted along it
T1 sequence (P62937 whole entry): as the sequence (P62937 whole entry) above

CCn1c(-c2cccnc2[C@H](C)OC)c2c3cc(ccc31)-c1cc(O)cc(c1)C[C@H](NC(=O)C(C(C)C)N(C)C(=O)[C@@]1(C)CCCN1C(=O)[C@H]1CN1)C(=O)N1CCC[C@H](N1)C(=O)OCC(C)(C)C2 (stereo partly drawn) [Compound 240]
IC50 [1]: > 10000 nM | IC50 [2]: 1000 to 10000 nM | IC50 [3, 16]: 1000 to 10000 nM | IC50 ([4]; NRAS G12C FRET data IC50, NRAS G12C): 100 to 1000 nM | EC50 [5, 17]: < 5000 nM | IC50 [6]: 1000 to 10000 nM

CCn1c(-c2cccnc2[C@H](C)OC)c2c3cc(ccc31)-c1cc(O)cc(c1)C[C@H](NC(=O)[C@H](C(C)C)N(C)C(=O)CN(C)C(=O)[C@@H]1CN1CCCOC(C)=O)C(=O)N1CCC[C@H](N1)C(=O)OCC(C)(C)C2 (stereo partly drawn) [Compound 267]
IC50 ([3]; read-out: AsPC-1 Cell Viability IC50, AsPC-1, K-Ras G12D, 5-day treatment): 100 to 1000 nM | IC50 ([7]; read-out: H358 Cell Viability IC50, NCI-H358, K-Ras G12C, 5-day treatment): < 10 nM | EC50 [5, 18]: < 5000 nM | IC50 [6]: 10 to 100 nM

CCn1c(-c2cccnc2[C@H](C)OC)c2c3cc(ccc31)-c1cc(O)cc(c1)C[C@H](NC(=O)[C@H](C(C)C)N1CCCC3(CN(C(=O)[C@@H]4CN4)C3)C1=O)C(=O)N1CCC[C@H](N1)C(=O)OCC(C)(C)C2 [Compound 306]
IC50 [8]: 100 to 1000 nM | IC50 [9]: < 10 nM | IC50 [10]: 10 to 100 nM | IC50 [1, 19]: 100 to 1000 nM | IC50 [2, 20]: 100 to 1000 nM | IC50 [3, 16]: 1000 to 10000 nM | IC50 [4, 21]: < 10 nM | IC50 [11]: 10 to 100 nM | IC50 [12]: 10 to 100 nM | EC50 [5, 17]: < 5000 nM | IC50 [13]: 10 to 100 nM | IC50 [14]: 10 to 100 nM | IC50 [6, 22]: 10 to 100 nM | IC50 [15]: 10 to 100 nM

CCn1c(-c2cccnc2[C@H](C)OC)c2c3cc(ccc31)-c1cccc(c1)C[C@H](NC(=O)[C@H](C1CCCC1)N1CC[C@]3(CCN(C(=O)[C@@H]4N[C@@H]4C4CC4)C3)C1=O)C(=O)N1CCC[C@H](N1)C(=O)OCC(C)(C)C2 [Compound 313]
IC50 [3, 16]: 10 to 100 nM | IC50 ([7]; NCI-H358, K-Ras G12C, 5-day treatment, read-out: H358 Cell Viability IC50): 100 to 1000 nM | EC50 [5, 17]: < 5000 nM | IC50 [13]: 100 to 1000 nM

CCn1c(-c2cnccc2COC)c2c3cc(ccc31)-c1cc(O)cc(c1)C[C@H](NC(=O)[C@H](C(C)C)N(C)C(=O)CN(C)C(=O)[C@H]1CN1S(C)(=O)=O)C(=O)N1CCC[C@H](N1)C(=O)OCC(C)(C)C2 (stereo partly drawn) [Example 36, (2R)—N-(2-(((2S)-1-(((6^3S,4S)-1^1-ethyl-2^5-hydroxy-1^2-(4-(methoxymethyl)pyridin-3-yl)-10,10-dimethyl-5,7-dioxo-6^1,6^2,6^3,6^4,6^5,6^6-hexahydro-1^1H-8-oxa-1(5,3)-indola-6(1,3)-pyridazina-2(1,3)-benzenacycloundecaphane-4-yl)amino)-3-methyl-1-oxobutan-2-yl)(methyl)amino)-2-oxoethyl)-N-methyl-1-(methylsulfonyl)aziridine-2-carboxamide]
IC50 [8]: 100 to 1000 nM | IC50 [9]: 10 to 100 nM | IC50 [10]: 10 to 100 nM | IC50 [1, 19]: 100 to 1000 nM | IC50 [2, 20]: 100 to 1000 nM | IC50 ([3]; read-out: AsPC-1 Cell Viability IC50): > 10000 nM | IC50 [4, 21]: 10 to 100 nM | IC50 [11]: 10 to 100 nM | IC50 [12]: 100 to 1000 nM | EC50 [5, 18]: < 5000 nM | IC50 [13]: 10 to 100 nM | IC50 [14]: 10 to 100 nM | IC50 [6, 22]: 100 to 1000 nM | IC50 [15]: 10 to 100 nM

Reference: patent publication US11739074B2, “Ras inhibitors” (Revolution Medicines, Inc., priority 2019, dated 2023)
